Results on 5 compounds are retold here after patent US6875452B1, “Inhibitor and preservative formulation” (priority 1997, dated 2005).

For data set [1], the system named is Listeria monocytogenes 11994. Put plainly: Viable count of L. monocytogenes in TSB with plant oils, benzoic acid, methyl paraben and combinations (Experimental Procedure 1). It counts as cell-based. As to conditions: for log10 of the mean count: 37° C.; for inhibition of L. monocytogenes in words: over the 48 hr period. The protocol: (§1) Listeria monocytogenes 11994 and Salmonella […] 4444 were purchased from the National Collection Type Culture, Porton Down, Wiltshire, UK. Each was stored in the long term in glycerol at -20° C., in the medium term on Tryptone Soya Agar (TSA) slopes and in the short term on TSA plates. All agar and broth (Tryptone Soya Broth) was purchased from Oxoid-Unipath Limited, Basingstoke, UK. […] Plates were incubated at 37° C. and colonies counted as colony forming units per ml (cfu/ml). […] Oils of fennel and […] used at 0.2% and whilst oil of basil was originally used for comparative purposes at 0.2% it was later used at 0.02%. […] Several factors were considered when choosing these concentrations. […] Triplicate plates were prepared for each dilution and the mean count of three plates was determined. […] Each experiment was performed on three separate occasions. It is the mean count from three separate experiments and the corresponding standard error of the mean which are shown in the results section. Two-tailed paired student's t-test was used to analyse inhibition caused by a combination compared to the corresponding control. Differences were judged to be statistically significant when p<0.05.

Data set [2] concerns Salmonella enteriditis 4444. The data set is described as follows: Viable count of S. enteriditis in TSB with plant oils, benzoic acid, methyl paraben and combinations (Experimental Procedure 1). The data set is classed as cell-based. As to conditions: for log10 of the mean count: 37° C.; for inhibition of S. enteriditis in words: over the 48 hr period. The protocol: as §1
For data set [3] the following is noted: literature [20,21]; cited from earlier work.
The subject of data set [4] is Listeria monocytogenes 11994. Put plainly: Viable count of L. monocytogenes in TSB with trans-anethole, fenchone, estragole, methyl paraben and combinations (Experimental Procedure 2). It counts as cell-based. Particulars: for inhibition of L. monocytogenes in words: 0.1%, over 48 hrs; for log10 of the mean count ± 1 SEM: 37° C., preservatives at 0.1%. The protocol: (§2) Listeria monocytogenes 11994 and Salmonella enteriditis 4444 were purchased from the National Collection Type Culture, Porton Down, Wiltshire, UK. Each was stored in the long term in glycerol at −20° C., in the medium term on Tryptone Soya Agar (TSA) slopes and in the short term on TSA plates. All agar and broth (Tryptone Soya Broth) was purchased from Oxoid-Unipath Limited, Basingstoke, UK.
(§3) Triplicate plates were prepared for each dilution and the mean count of three plates was determined. […] Each experiment was performed on three separate occasions.
(§4) Two-tailed paired student's t-test was used to analyse inhibition caused by a combination compared to the corresponding control. Differences were judged to be statistically significant when p<0.05.
(§5) This definition is also in agreement with Mims et al.
(§6) Corresponding controls were also prepared, thus 10 μl of each overnight culture was added to the appropriate broth only. All tubes were incubated at 37° C. 1 ml samples were removed from each test and control after vortexing at 0 hrs, 1 hr, 4 hrs, 8 hrs, 24 hrs and 48 hrs and serially diluted in 0.01M PBS. 100 μl from each dilution was placed on an agar plate and spread across the surface. Plates were incubated at 37° C. and colonies counted as colony forming units per ml (cfu/ml). As ethanol was used to prepare stock solutions of methyl paraben a diluent control was used where ethanol was added to each culture medium. […] Due to the limitation of the serial dilution technique it was not possible to count cfu less than 10/ml.
(§7) Furthermore to make valid comparison about the activity of each combination against each microbe it was necessary to use just one concentration of each component with the combination. […] In addition, methyl paraben cannot be used in food in excess of 0.1% [15].

Data set [5] concerns mice. Particulars: high doses, literature [22,23]; cited from earlier work.
The test system of data set [6] is Salmonella enteriditis 4444. The data set is described as follows: Viable count of S. enteriditis in TSB with trans-anethole, fenchone, estragole, methyl paraben and combinations (Experimental Procedure 2). The data set is classed as cell-based. As to conditions: for inhibition of S. enteriditis in words: 0.1%, over the 48 hr period; for log10 of the mean count ± 1 SEM: 37° C., preservatives at 0.1%. The method, then:
as §2, §3, §4, §5, §6, §7

[7] abbreviates: 0 hrs (starting count, same as control).

Some results are limits rather than exact numbers.

`O=C(O)c1ccccc1` [BA, benzoic acid]: the “log10 of the mean count” value in data set [1] (setting [7]) is 6.45 ± 0.02 log10 cfu/ml; in data set [1] (1 hr), 6.33 ± 0.11 log10 cfu/ml; in data set [1] (4 hrs), 7.22 ± 0.04 log10 cfu/ml; in data set [1] (8 hrs), 8.16 ± 0.06 log10 cfu/ml; in data set [1] (24 hrs), 9.09 ± 0.03 log10 cfu/ml; in data set [1] (48 hrs) it was 9.0 ± 0.06 log10 cfu/ml. Moreover, the “log10 of the mean count” value in data set [2] (setting [7]) came out at 6.08 ± 0.03 log10 cfu/ml; in data set [2] (1 hr), 6.02 ± 0.04 log10 cfu/ml; in data set [2] (4 hrs), 6.46 ± 0.01 log10 cfu/ml; in data set [2] (8 hrs), 7.32 ± 0.08 log10 cfu/ml; in data set [2] (24 hrs), 8.67 ± 0.14 log10 cfu/ml; in data set [2] (48 hrs) it was 8.52 ± 0.03 log10 cfu/ml. In data set [1], the “inhibition of L. monocytogenes in words” value is on record as “relatively weakly inhibitory”. Also, the “inhibition of S. enteriditis in words” value in data set [2] is “little inhibition”.

On to `C/C=C/c1ccc(OC)cc1` [Trans-anethole], for which the toxicity in words entry in data set [3] is “non-toxic”. Moreover, in data set [4], the “inhibition of L. monocytogenes in words” value is on record as “little or no inhibitory properties”. Also, the “log10 of the mean count ± 1 SEM” value in data set [4] (1 hr) was determined as 6.1 ± 0.04 log10 cfu/ml; in data set [4] (4 hrs), 6.3 ± 0.1 log10 cfu/ml; in data set [4] (8 hrs) it was 6.7 ± 0.2 log10 cfu/ml; in data set [4] (24 hrs), 9.0 ± 0.1 log10 cfu/ml; in data set [4] (48 hrs), 9.0 ± 0.01 log10 cfu/ml.

For the compound `C=CCc1ccc(OC)cc1` [Estragole, estragole (4-allylanisole)], the carcinogenicity in words entry in data set [5] is recorded as “carcinogenic in high doses in mice”. Also, the “log10 of the mean count ± 1 SEM” value in data set [4] (1 hr) is listed as 5.9 ± 0.05 log10 cfu/ml; in data set [4] (4 hrs) it was 5.6 ± 0.07Δ log10 cfu/ml; in data set [4] (8 hrs), 5.5 ± 0.06Δ log10 cfu/ml; in data set [4] (24 hrs), 4.9 ± 0.08Δ log10 cfu/ml; in data set [4] (48 hrs), 4.7 ± 0.09Δ log10 cfu/ml; in data set [6] (1 hr), 2.2 ± 0.05Δ log10 cfu/ml. The “log10 of the mean count ± 1 SEM” value in data set [6] (4 hrs) is given as 1.6 ± 0.08Δ log10 cfu/ml; in data set [6] (8 hrs) it was 1.5 ± 0.08Δ log10 cfu/ml; in data set [6] (24 hrs), 4.3 ± 0.03Δ log10 cfu/ml; in data set [6] (48 hrs) it was 6.9 ± 0.03Δ log10 cfu/ml. Further, the inhibition of growth entry in data set [4] (after 24 hrs) was “more than 4 log10”. For the same compound, the “inhibition of S. enteriditis in words” value in data set [6] is “two most single inhibitory preservatives”. In data set [6] (4 hrs and 8 hrs), the “growth inhibited by” value is reported as “more than 5.0 log10”. Besides, the inhibition in data set [6] (48 hrs) turned out to be 2.1 log10.

For `CC12CCC(C1)C(C)(C)C2=O` (stereo not shown) [Fenchone, fenchone], the toxicity in words result in data set [3] is recorded as “non-toxic”. Moreover, the “inhibition of L. monocytogenes in words” value in data set [4] was “most inhibitory single component”. For the same compound, the “log10 of the mean count ± 1 SEM” value in data set [4] (1 hr) is 2.7 ± 0.2Δ log10 cfu/ml; in data set [4] (4 hrs), 1.9 ± 0.08Δ log10 cfu/ml; in data set [4] (8 hrs) it was <1.0Δ log10 cfu/ml; in data set [4] (24 hrs), <0.1Δ log10 cfu/ml; in data set [4] (48 hrs), <1.0Δ log10 cfu/ml; in data set [6] (1 hr), 5.8 ± 0.02 log10 cfu/ml. The “log10 of the mean count ± 1 SEM” value in data set [6] (4 hrs) was 6.4 ± 0.04 log10 cfu/ml; in data set [6] (8 hrs), 6.9 ± 0.04Δ log10 cfu/ml; in data set [6] (24 hrs) it was 8.6 ± 0.09Δ log10 cfu/ml; in data set [6] (48 hrs) it was 8.5 ± 0.01Δ log10 cfu/ml. In data set [4] (8 hrs and above), the “count (cells undetectable)” value is under 10 cfu/ml. Moreover, the “inhibition of S. enteriditis in words” value in data set [6] was “little or no inhibition”.

As for `COC(=O)c1ccc(O)cc1` [MP, methyl paraben], the “log10 of the mean count” value is listed as 6.45 ± 0.02 log10 cfu/ml in data set [1] (setting [7]); 6.49 ± 0.01 log10 cfu/ml in data set [1] (1 hr); 7.02 ± 0.02 log10 cfu/ml in data set [1] (4 hrs); 7.86 ± 0.05 log10 cfu/ml in data set [1] (8 hrs); 9.27 ± 0.02 log10 cfu/ml in data set [1] (24 hrs); 9.24 ± 0.02 log10 cfu/ml in data set [1] (48 hrs). Further, the “log10 of the mean count” value in data set [2] (setting [7]) is reported as 6.08 ± 0.03 log10 cfu/ml; in data set [2] (1 hr) it was 6.04 ± 0.05 log10 cfu/ml; in data set [2] (4 hrs) it was 6.32 ± 0.03 log10 cfu/ml; in data set [2] (8 hrs), 6.63 ± 0.03 log10 cfu/ml; in data set [2] (24 hrs) it was 8.36 ± 0.05 log10 cfu/ml; in data set [2] (48 hrs), 8.45 ± 0.11 log10 cfu/ml. In addition, the entries for the “inhibition of L. monocytogenes in words” value in data set [1] and in data set [4] were “relatively weakly inhibitory” and “little or no inhibitory properties”, respectively. Besides, the “inhibition of S. enteriditis in words” value in data set [2] is given as “little inhibition”; in data set [6], “little or no inhibition”. Besides, the “log10 of the mean count ± 1 SEM” value stood at 6.5 ± 0.01 log10 cfu/ml in data set [4] (1 hr); 6.9 ± 0.01 log10 cfu/ml in data set [4] (4 hrs); 7.7 ± 0.01 log10 cfu/ml in data set [4] (8 hrs); 9.3 ± 0.01 log10 cfu/ml in data set [4] (24 hrs); 9.2 ± 0.01 log10 cfu/ml in data set [4] (48 hrs); 6.0 ± 0.01 log10 cfu/ml in data set [6] (1 hr). Further, the “log10 of the mean count ± 1 SEM” value is 6.3 ± 0.01 log10 cfu/ml in data set [6] (4 hrs), 6.6 ± 0.06Δ log10 cfu/ml in data set [6] (8 hrs), 8.5 ± 0.04Δ log10 cfu/ml in data set [6] (24 hrs) and 8.6 ± 0.01Δ log10 cfu/ml in data set [6] (48 hrs).
